In patent US11191742B2, “Methods of treating neurodegenerative disorders in a particular population” (ALZHEON, INC., priority 2015, dated 2021):

Experiments:
[1] = system: APOE4 heterozygous patients with Alzheimer's disease; assay: Phase 3 trials of tramiprosate, ADAS-Cog score, heterozygous APOE4+ patients; type: in vivo, human; conditions: Heterozygous APOE4+ patients ≤85 years
Experimental: (§1) The delta value in all of these tables is calculated by measuring the increase in score over baseline for each patient in a treatment group and obtaining the mean increase for such group and then subtracting that value from the mean increase in score over baseline for all patients in the placebo group. Thus, a positive delta value in these tables represents an improvement over the placebo group. Phase 3 human clinical trials of tramiprosate to treat Alzheimer's disease at doses of 100 mg BID and 150 mg BID for up to 78 weeks were run in both North America and Europe (1691 total patients enrolled). Placebos in both trials were treatment with donepezil either alone or in combination with memantine. ADAS-Cog scores and CDR-SB scores were obtained every 13 weeks for patients that remained in the trial. The patients were genotyped for APOE4 and the severity of their disease was measured using MMSE prior to the beginning of treatment. The data from both trials were merged for certain statistical analyses. […] We then performed additional subgroup analysis, subgrouping by APOE4 genotype/allele status (APOE4 heterozygous or APOE4 homozygous) and by disease severity (mild vs moderate) to determine if the number of c alleles and/or the severity of disease predicted a better outcome of tramiprosate therapy. […] In Table 3, *control treatment is donepezil either alone or in combination with memantine. Positive delta values quantitate the amount by which average increase in ADAS-Cog Score points above baseline for the control group exceeded the average increase in ADAS-Cog Score points above baseline for the treatment group.

[2] = system: APOE4+ patients with Alzheimer's disease; assay: Phase 3 trials of tramiprosate, ADAS-Cog score, all APOE4+ patients; type: in vivo, human; conditions: for ADAS-Cog Score Change over Standard of Care (Δ improvement vs control): All APOE4+ patients ≤85 years
Experimental: as §1, with “1,” for “3,”

[3] = Mild (MMSE 20-26), 100 mg BID, 52 weeks
[4] = Mild (MMSE 20-26), 100 mg BID, 65 weeks
[5] = Mild (MMSE 20-26), 100 mg BID, 78 weeks
[6] = Mild (MMSE 20-26), 150 mg BID, 52 weeks
[7] = Mild (MMSE 20-26), 150 mg BID, 65 weeks
[8] = Mild (MMSE 20-26), 150 mg BID, 78 weeks
[9] = Mild-to-Moderate (MMSE 16-26), 100 mg BID, 52 weeks
[10] = Mild-to-Moderate (MMSE 16-26), 100 mg BID, 65 weeks
[11] = Mild-to-Moderate (MMSE 16-26), 100 mg BID, 78 weeks
[12] = Mild-to-Moderate (MMSE 16-26), 150 mg BID, 52 weeks
[13] = Mild-to-Moderate (MMSE 16-26), 150 mg BID, 65 weeks
[14] = Mild-to-Moderate (MMSE 16-26), 150 mg BID, 78 weeks
[15] = Moderate (MMSE 16-19), 100 mg BID, 52 weeks
[16] = Moderate (MMSE 16-19), 100 mg BID, 65 weeks
[17] = Moderate (MMSE 16-19), 100 mg BID, 78 weeks
[18] = Moderate (MMSE 16-19), 150 mg BID, 52 weeks
[19] = Moderate (MMSE 16-19), 150 mg BID, 65 weeks
[20] = Moderate (MMSE 16-19), 150 mg BID, 78 weeks

For `NCCCS(=O)(=O)O` [Tramiprosate, 3-amino-1-propanesulfonic acid], the “ADAS-Cog Score Change over Standard of Care (Δ improvement vs control)” value [1, 3] was 0.9 points, the “ADAS-Cog Score Change over Standard of Care (Δ improvement vs control)” value [1, 4] was −0.3 points and the “ADAS-Cog Score Change over Standard of Care (Δ improvement vs control)” value [1, 5] was 0.8 points. The “ADAS-Cog Score Change over Standard of Care (Δ improvement vs control)” value [1, 6] was 0.1 points, the “ADAS-Cog Score Change over Standard of Care (Δ improvement vs control)” value [1, 7] was −0.6 points and the “ADAS-Cog Score Change over Standard of Care (Δ improvement vs control)” value [1, 8] was −0.5 points. For the same compound, the “ADAS-Cog Score Change over Standard of Care (Δ improvement vs control)” value [1, 9] was 2.0 points, the “ADAS-Cog Score Change over Standard of Care (Δ improvement vs control)” value [1, 10] was 0.8 points and the “ADAS-Cog Score Change over Standard of Care (Δ improvement vs control)” value [1, 11] was 1.1 points. For the same compound, the “ADAS-Cog Score Change over Standard of Care (Δ improvement vs control)” value [1, 12] was 0.5 points, the “ADAS-Cog Score Change over Standard of Care (Δ improvement vs control)” value [1, 13] was 0.0 points and the “ADAS-Cog Score Change over Standard of Care (Δ improvement vs control)” value [1, 14] was −0.4 points. The “ADAS-Cog Score Change over Standard of Care (Δ improvement vs control)” value [1, 15] was 4.4 points, the “ADAS-Cog Score Change over Standard of Care (Δ improvement vs control)” value [1, 16] was 3.4 points and the “ADAS-Cog Score Change over Standard of Care (Δ improvement vs control)” value [1, 17] was 2 points. The “ADAS-Cog Score Change over Standard of Care (Δ improvement vs control)” value [1, 18] was 1.5 points, the “ADAS-Cog Score Change over Standard of Care (Δ improvement vs control)” value [1, 19] was 1.4 points and the “ADAS-Cog Score Change over Standard of Care (Δ improvement vs control)” value [1, 20] was 0 points. The “Effect on ADAS-Cog compared with the placebo” value ([2]; APOE4+ subgroup, both 100 mg and 150 mg treatment groups) was “statistically significant effect”, the “ADAS-Cog Score Change over Standard of Care (Δ improvement vs control)” value [2, 3] was 0.82 points and the “ADAS-Cog Score Change over Standard of Care (Δ improvement vs control)” value [2, 4] was 0.99 points. The “ADAS-Cog Score Change over Standard of Care (Δ improvement vs control)” value [2, 5] was 1.3 points, the “ADAS-Cog Score Change over Standard of Care (Δ improvement vs control)” value [2, 6] was 0.17 points and the “ADAS-Cog Score Change over Standard of Care (Δ improvement vs control)” value [2, 7] was 0.71 points. The “ADAS-Cog Score Change over Standard of Care (Δ improvement vs control)” value [2, 8] was 0.27 points, the “ADAS-Cog Score Change over Standard of Care (Δ improvement vs control)” value [2, 9] was 1.67 points and the “ADAS-Cog Score Change over Standard of Care (Δ improvement vs control)” value [2, 10] was 1.82 points. For the same compound, the “ADAS-Cog Score Change over Standard of Care (Δ improvement vs control)” value [2, 11] was 2.03 points, the “ADAS-Cog Score Change over Standard of Care (Δ improvement vs control)” value [2, 12] was 0.95 points and the “ADAS-Cog Score Change over Standard of Care (Δ improvement vs control)” value [2, 13] was 1.23 points. For the same compound, the “ADAS-Cog Score Change over Standard of Care (Δ improvement vs control)” value [2, 14] was 0.77 points, the “ADAS-Cog Score Change over Standard of Care (Δ improvement vs control)” value [2, 15] was 3.45 points and the “ADAS-Cog Score Change over Standard of Care (Δ improvement vs control)” value [2, 16] was 3.45 points. The “ADAS-Cog Score Change over Standard of Care (Δ improvement vs control)” value [2, 17] was 3.32 points, the “ADAS-Cog Score Change over Standard of Care (Δ improvement vs control)” value [2, 18] was 2.52 points and the “ADAS-Cog Score Change over Standard of Care (Δ improvement vs control)” value [2, 19] was 2.23 points. For the same compound, the “ADAS-Cog Score Change over Standard of Care (Δ improvement vs control)” value [2, 20] was 1.57 points.
